From patent US11253527B2, “Method and composition for inhibiting virus infection” (priority 2019, dated 2022)

Tests used:
[1] = test system: Oral epithelial cells (OC3); assay: MTT cell viability of mock- or HSV-1-infected oral epithelial cells (OC3); assay type: cell-based; details: OC3 cells, MTT, 19 hours post infection
Experimental: (§1) FIG. 4 provides Experimental conditions for evaluation of the effects of Antrodia camphorata fruit body extracts on oral epithelial cells during HSV-1 infection. Three experimental conditions, including no-treatment, pre-treatment and post-treatment were performed. Oral epithelial cells (OC3) were pre-treated with media only or media containing each Antrodia camphorata extracts for 2 hours, followed by HSV-1 inoculation. Cells were infected with HSV-1 viruses at multiplicity of infection (MOI) of 5 or mock infected for 1 hour at 37° C. for viral entry to occur. Antrodia camphorata extracts were not added during viral inoculation for 1 hour to avoid of its direct effects on virions. Mock- or HSV-1-infected cells were further incubated in the absence or presence of the drug for 19 hours.
The oral epithelial cell line (OC3) was used to determine the possible effects of Antrodia camphorata extracts on oral epithelial cells during HSV-1 infection. Cell monolayers were treated as illustrated in FIG. 4 (please also see details in the Materials and Methods section). Three experimental conditions, including no-treatment, pre-treatment and post-treatment were performed. Whether these Antrodia camphorata extracts have effects before or after viral infection were examined. The effects of Antrodia camphorata extracts on viral propagation (viral yields) in infected oral epithelial cells were examined. At 19-20 h post infection, viral yields in the supernatants were determined using the plaque assay. Viability of treated cells was also determined using the MTT assay for the mitochondrial dehydrogenase activity. Moreover, purified HSV-1 virions were directly treated with Antrodia camphorata extracts to examine whether Antrodia camphorata extracts exert anti-HSV-1 activity directly on virus particles before viral entry. […]
The mitochondrial dehydrogenase activity of treated cells was evaluated using the FBS-free medium containing 1 mg/ml of 3-[4,5-dimethylthiazol-2-yl]-2,5 diphenyltetrazolium bromide (MTT). […]

HSV-1 virus (KOS strain) = assay: HSV-1 viral yields in supernatants of OC3 cells, plaque assay; assay type: cell-based, Herpes simplex virus type 1; details: for viral yields in the supernatants, post-treatment: OC3 cells post-treated after HSV-1 infection (MOI 5), 19 hours; for viral yield reduced to: media control = 100%; for viral yields in the supernatants, pre-treatment: OC3 cells pre-treated 2 hours before HSV-1 infection (MOI 5)
Experimental: as §1
(§2) The oral epithelial cell line (OC3) was used to determine the possible effects of Antrodia camphorata extracts on oral epithelial cells during HSV-1 infection. Cell monolayers were treated as illustrated in FIG. 4 (please also see details in the Materials and Methods section). Three experimental conditions, including no-treatment, pre-treatment and post-treatment were performed. Whether these Antrodia camphorata extracts have effects before or after viral infection were examined. The effects of Antrodia camphorata extracts on viral propagation (viral yields) in infected oral epithelial cells were examined. At 19-20 h post infection, viral yields in the supernatants were determined using the plaque assay. Viability of treated cells was also determined using the MTT assay for the mitochondrial dehydrogenase activity. Moreover, purified HSV-1 virions were directly treated with Antrodia camphorata extracts to examine whether Antrodia camphorata extracts exert anti-HSV-1 activity directly on virus particles before viral entry.
HSV-1 virus (KOS strain) from the extra-cellular fluid of infected Vero cells was purified using sucrose-gradient. Purified viruses were stored frozen in small aliquots. Purified viruses were titered using the plaque assay.
Oral epithelial cells (OC3 cells) were infected with HSV-1 at multiplicity of infection (MOI) of 5 or mock infected for 1 h at 37° C. for viral entry to occur. Unbound viruses were removed. Infected cells were then overlaid with appropriate media and incubated at 37° C. The Antrodia camphorata fruit body extracts used were A2 (Antrodia camphorata extracts), A3 (dehydrosulphurenic acid), A4 (antcin K), A5 (versisponic acid), and A6 (dehydroeburicoic acid). For the effects of Antrodia camphorata fruit body extracts, oral cells were treated in three different experimental conditions (FIG. 1): (1) no treatment, (2) pre-treatment with each Antrodia camphorata fruit body extracts before infection and (3) post-treatment with each Antrodia camphorata fruit body extracts after infection. Purified HSV-1 virions were also incubated directly with media only or media containing Antrodia camphorata fruit body extracts. The viral infectivity of treated virions was then examined using the plaque assay.
Viral titers in the supernatants after infection were determined using the plaque assay. Cells were grown to confluence and infected with tenfold serial dilution of the samples. Cells were then overlaid with medium containing 3% carboxymethylcellulose to prevent the formation of secondary plaques. Cells were incubated until well-defined clear plaques were formed. Cells were fixed with 3.7% formaldehyde and stained with crystal violet. Plaques were observed and counted under an inverted microscope. The viral yield of the media-pretreated HSV-1 infected control was considered to be 100%.

HSV-1 virions = assay: Direct effect on infectivity of purified HSV-1 virions, plaque assay; assay type: cell-based, Herpes simplex virus type 1; details: purified virions incubated directly with drug 1 hour at 37° C., dose-dependent
Experimental: Purified HSV-1 was incubated directly with media containing various concentrations of each Antrodia camphorata extracts for 1 hour at 37° C. The viral titers were then examined in oral epithelial cells (OC3) using the plaque assay. The results shown are the mean±SEM from at least three independent experiments. Statistical differences are shown by different lowercase letters (analysis of variance, Tukey, α=0.05).
as §2
Oral epithelial cells (OC3 cells) were infected with HSV-1 at multiplicity of infection (MOI) of 5 or mock infected for 1 h at 37° C. for viral entry to occur. Unbound viruses were removed. Infected cells were then overlaid with appropriate media and incubated at 37° C. The Antrodia camphorata fruit body extracts used were A2 (Antrodia camphorata extracts), A3 (dehydrosulphurenic acid), A4 (antcin K), A5 (versisponic acid), and A6 (dehydroeburicoic acid). […]
Viral titers in the supernatants after infection were determined using the plaque assay. […] Plaques were observed and counted under an inverted microscope. […]

HBV = HBV entry/infection of DMSO-differentiated HuS-E/2 cells (HBsAg/HBeAg ELISA, HBV mRNA RT-PCR); assay type: cell-based, Hepatitis B virus; details: for levels of HBV mRNA: HuS-E/2 cells, drug present during infection; for inhibiting the entry of HBV into HuS-E/2 cells: by HBsAg, HBeAg and HBV mRNA expression levels
Experimental: (§3) DMSO-differentiated HuS-E/2 cells were exposed to HBV at a MOI of 10 for 20 h in the presence of the indicated concentration of Antrodia camphorata fruit body extracts, then the HBV and drugs were removed and the cells incubated for 2 days, when HBsAg secreted into the culture medium was measured by ELISA and expressed as a percentage of the value for the non-drug-treated controls. The results are the mean±SD for three independent experiments. *, P<0.05; **, P<0.01; ***, P<0.001.
as §3, with “HBeAg” for “HBsAg”
DMSO-differentiated HuS-E/2 cells were exposed to HBV at a MOI of 10 for 20 h in the presence of the indicated concentration of Antrodia camphorata fruit body extracts, then the HBV and drugs were removed and the cells incubated for 2 days. RNA was then extracted from cells and subjected to RT-PCR to measure HBV mRNA levels. The results expressed were as a percentage of the value for the non-drug-treated cells. Control PCRs were performed for endogenous GAPDH mRNA as the loading control. The results are the mean±SD for three independent experiments. *, P<0.05; **, P<0.01; ***, P<0.001.
HuS-E/2 cells that retains primary hepatocyte characteristics even after prolonged culture are utilized for HBV infection. For HBV infection, HuS-E/2 cells were differentiated with 2% DMSO for 7 days, and virus particles were collected to infect and replicate in HuS-E/2 cells as described in our previous study. These cells are useful to assay infectivity of HBV strains, and screening of anti-HBV agents.
Total DNA is extracted with a Genomic DNA isolation kit (Nexttec Biotechnologie, Germany). Total RNA is isolated from cultured cells using TRIzol® reagent (Invitrogen). […] The results are analyzed with the iCycler iQ real-time PCR detection system (Bio-Rad). […]
To evaluate the effects of Antrodia camphorata fruit body extracts on HBV infectivity and replication, HuS-E/2 cells were infected with ayw subtype HBV derived from HepG2.2.15 cells. The different Antrodia camphorata fruit body extracts were added to the medium during infection with HBV for […], then the infected cells were washed and incubated in fresh medium for 48 hours, when HBsAg and HBeAg in culture medium were detected by ELISA and HBV mRNA was detected by real-time PCR as an index of efficiency of HBV infection.

[2] = test system: HuS-E/2 immortalized human primary hepatocytes cells; assay: MTT cell viability, HuS-E/2 cells; details: 48 h, 20 μg/ml
HepG2.2.15 cells = assay: MTT cell viability, HepG2.2.15 cells; details: 48 h, 20 μg/ml
[3] = OC3 cells post-treated with 2.5 μg/ml after HSV-1 infection
[4] = OC3 cells pre-treated with 10 μg/ml for 2 hours before HSV-1 infection

SMILES | viability of mock-infected cells or HSV-1 infected cells [1] | viral yields in the supernatants, post-treatment (HSV-1 virus (KOS strain)) | viral yield reduced to (HSV-1 virus (KOS strain); [3]) | viral yields in the supernatants, pre-treatment (HSV-1 virus (KOS strain)) | viral yield reduced to (HSV-1 virus (KOS strain); [4]) | viral infectivity of treated HSV-1 virions (HSV-1 virions) | levels of HBV mRNA (HBV) | inhibiting the entry of HBV into HuS-E/2 cells (HBV) | toxic effect (MTT cell viability) [2] | viral yield reduced to (HSV-1 virus (KOS strain); OC3 cells pre-treated with 25 μg/ml for 2 hours before HSV-1 infection) | viral yield reduced to (HSV-1 virus (KOS strain); infected OC3 cells post-treated with 12.5 μg/ml) | toxic effect (MTT cell viability) (HepG2.2.15 cells)
C=C(CC[C@H](C(=O)O)[C@H]1C[C@H](O)[C@@]2(C)C3=CC[C@H]4C(C)(C)[C@@H](O)CC[C@]4(C)C3=CC[C@]12C)C(C)C [A3, dehydrosulphurenic acid] | not affected evidently | did not reach statistical difference | 65% | did not reach statistical difference | 57% | – | – | – | – | – | – | –
C=C(CC[C@@H](C(=O)O)[C@H]1CC[C@@]2(C)C3=CC[C@H]4C(C)(C)[C@@H](O)CC[C@]4(C)C3=CC[C@]12C)C(C)C [A6, dehydroeburicoic acid] | – | significantly reduced | 63% | significantly reduced | 37% | statistically significantly inhibited | decrease | much more effective | no toxic effect | – | – | –
C=C(CC[C@@H](C(=O)O)[C@H]1C[C@H](OC(C)=O)[C@@]2(C)C3=C(CC[C@]12C)[C@@]1(C)CC[C@H](O)C(C)(C)[C@@H]1CC3)C(C)C [A5, versisponic acid] | not affected evidently | significantly reduced | – | significantly reduced | – | statistically significantly inhibited | decrease | much more effective | no toxic effect | 48% | 57% | little or no toxic effect
